From patent US9617258B2, “Pyrrolo[2,3-d]pyrimidinyl, pyrrolo[2,3-b]pyrazinyl and pyrrolo[2,3-d]pyridinyl acrylamides” (Pfizer Inc., priority 2013, dated 2017)

Target: JAK3 enzyme (Homo sapiens (Human), UniProt P52333)
Assay: JAK Caliper enzyme assay at 1 mM ATP
Assay type: biochemical
Conditions: read-out: JAK3 (1 mM ATP) IC50
Method: JAK Caliper Enzyme Assay at 4 μM or 1 mM ATP
Test article was solubilized in dimethyl sulfoxide (DMSO) to a stock concentration of 30 mM. An 11-point half log dilution series was created in DMSO with a top concentration of 600 μM. […] The compound plates were diluted 1 to 60 resulting in a top final assay compound concentration of 10 μM and a 2% DMSO concentration.
Test article and assay controls were added to a 384-well plate. Reaction mixtures contained 20 mM HEPES, pH 7.4, 10 mM magnesium chloride, 0.01% bovine serum albumin (BSA), 0.0005% Tween 20, 4 μM or 1 mM ATP and 1 μM peptide substrate. […] The assays were initiated by the addition 1 nM JAK3 enzyme and were incubated at room temperature 75 minutes for JAK3. Enzyme concentrations and incubation times were optimized for each new enzyme preps and were modified slightly over time to ensure 20%-30% phosphorylation. The assays were stopped with a final concentration of 10 mM EDTA, 0.1% Coating Reagent and 100 mM HEPES, pH=7.4. The assay plates were placed on a Caliper Life Science Lab Chip 3000 (LC3000) instrument, and each well was sampled using appropriate separation conditions to measure the unphosphorylated and phosphorylated peptide.

Sequence of JAK3 enzyme (P52333 whole entry, species assumed): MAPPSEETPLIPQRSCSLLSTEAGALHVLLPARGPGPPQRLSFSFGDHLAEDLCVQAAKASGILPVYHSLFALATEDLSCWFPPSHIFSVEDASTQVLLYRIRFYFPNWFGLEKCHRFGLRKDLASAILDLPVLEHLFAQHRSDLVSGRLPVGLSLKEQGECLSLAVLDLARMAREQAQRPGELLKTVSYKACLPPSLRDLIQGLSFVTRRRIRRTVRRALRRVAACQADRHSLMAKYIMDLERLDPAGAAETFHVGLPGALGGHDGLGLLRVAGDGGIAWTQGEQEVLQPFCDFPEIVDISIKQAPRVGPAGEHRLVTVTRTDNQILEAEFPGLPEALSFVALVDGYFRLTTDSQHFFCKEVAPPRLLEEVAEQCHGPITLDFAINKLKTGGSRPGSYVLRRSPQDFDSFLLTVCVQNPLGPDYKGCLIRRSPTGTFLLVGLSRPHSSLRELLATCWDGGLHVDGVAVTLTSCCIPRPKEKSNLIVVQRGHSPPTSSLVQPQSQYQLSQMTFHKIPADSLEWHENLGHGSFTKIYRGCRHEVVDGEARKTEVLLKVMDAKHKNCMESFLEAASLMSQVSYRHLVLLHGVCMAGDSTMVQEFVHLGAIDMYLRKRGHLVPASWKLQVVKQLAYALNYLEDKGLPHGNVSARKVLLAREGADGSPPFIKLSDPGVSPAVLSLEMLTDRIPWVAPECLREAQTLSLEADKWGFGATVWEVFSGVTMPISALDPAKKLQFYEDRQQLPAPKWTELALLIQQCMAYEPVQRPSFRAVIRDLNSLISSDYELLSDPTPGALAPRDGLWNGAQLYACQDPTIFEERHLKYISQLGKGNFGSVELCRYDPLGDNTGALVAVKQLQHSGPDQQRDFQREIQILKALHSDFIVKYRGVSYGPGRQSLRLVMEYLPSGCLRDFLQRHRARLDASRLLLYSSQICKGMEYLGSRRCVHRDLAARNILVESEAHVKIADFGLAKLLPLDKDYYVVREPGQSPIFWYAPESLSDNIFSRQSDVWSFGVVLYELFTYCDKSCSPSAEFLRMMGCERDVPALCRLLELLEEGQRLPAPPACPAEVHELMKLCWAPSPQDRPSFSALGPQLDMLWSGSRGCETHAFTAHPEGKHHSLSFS

IC50 | Compound
> 10 µM | C=CC(=O)c1c[nH]c2ncnc(N[C@H]3CN(C(=O)C=C)CC[C@H]3F)c12 [Example 120, 1-(4-{[(3S,4R)-1-Acryloyl-4-fluoropiperidin-3-yl]amino}-7H-pyrrolo[2,3-d]pyrimidin-5-yl)prop-2-en-1-one]
> 10 µM | C=CC(=O)N1CC[C@@H](Nc2cnc3[nH]ccc3n2)C1 [Example 335, (R)-1-(3-((5H-Pyrrolo[2,3-b]pyrazin-2-yl)amino)pyrrolidin-1-yl)prop-2-en-1-one]

Test system: not listed separately
Assay: Stability of JAK3 covalent inhibitors in human whole blood;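 note: parent compound remaining over incubation time quantified by LC-MS/MS as peak area ratio against an internal standard, using pooled K2-EDTA blood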
Assay type: in vitro ADME
Conditions: both sexes, whole blood, 37° C., read-out: Human blood stability t1/2

Compound | half-life at 1 μM
C=CC(=O)N1CCC(Nc2cnc3[nH]cc(C(=O)NCC(C)C)c3n2)CC1 [Example 272, 2-[(1-acryloylpiperidin-4-yl)amino]-N-(2-methylpropyl)-5H-pyrrolo[2,3-b]pyrazine-7-carboxamide] | 3.62 h
C=CC(=O)N1CCC(Nc2cnc3[nH]cc(C(=O)NCC(F)(F)F)c3n2)CC1 [Example 273, 2-[(1-acryloylpiperidin-4-yl)amino]-N-(2,2,2-trifluoroethyl)-5H-pyrrolo[2,3-b]pyrazine-7-carboxamide] | 3.63 h
C=CC(=O)N1CCC(Nc2cnc3[nH]cc(C(=O)N[C@H](C)CCC)c3n2)CC1 [Example 274, 2-[(1-acryloylpiperidin-4-yl)amino]-N-[(2R)-pentan-2-yl]-5H-pyrrolo[2,3-b]pyrazine-7-carboxamide] | > 6 h
C=CC(=O)N1CCC(Nc2cnc3[nH]cc(C(=O)NCCOC)c3n2)CC1 [Example 275, 2-[(1-acryloylpiperidin-4-yl)amino]-N-(2-methoxyethyl)-5H-pyrrolo[2,3-b]pyrazine-7-carboxamide] | > 6 h
C=CC(=O)N1CCC(Nc2cnc3[nH]cc(C(=O)NC(C)(C)CC)c3n2)CC1 [Example 276, 2-[(1-acryloylpiperidin-4-yl)amino]-N-(2-methylbutan-2-yl)-5H-pyrrolo[2,3-b]pyrazine-7-carboxamide] | 3.75 h
C=CC(=O)N1CCC(Nc2cnc3[nH]cc(C(=O)N[C@@H](C)COC)c3n2)CC1 [Example 277, 2-[(1-acryloylpiperidin-4-yl)amino]-N-[(2S)-1-methoxypropan-2-yl]-5H-pyrrolo[2,3-b]pyrazine-7-carboxamide] | > 6 h
C=CC(=O)N1CCC(Nc2cnc3[nH]cc(C(=O)NC4CCCCC4)c3n2)CC1 [Example 278, 2-[(1-acryloylpiperidin-4-yl)amino]-N-cyclohexyl-5H-pyrrolo[2,3-b]pyrazine-7-carboxamide] | 3.93 h
C=CC(=O)N1CCC(Nc2cnc3[nH]cc(C(=O)NC4CCC4)c3n2)CC1 [Example 280, 2-[(1-acryloylpiperidin-4-yl)amino]-N-cyclobutyl-5H-pyrrolo[2,3-b]pyrazine-7-carboxamide] | > 6 h
C=CC(=O)N1CCC(Nc2cnc3[nH]cc(C(=O)NC45CC(C4)C5)c3n2)CC1 [Example 281, 2-[(1-acryloylpiperidin-4-yl)amino]-N-(bicyclo[1.1.1]pent-1-yl)-5H-pyrrolo[2,3-b]pyrazine-7-carboxamide] | 5.77 h
C=CC(=O)N1CCC(Nc2cnc3[nH]cc(C(=O)NCC(C)(F)F)c3n2)CC1 [Example 282, 2-[(1-acryloylpiperidin-4-yl)amino]-N-(2,2-difluoropropyl)-5H-pyrrolo[2,3-b]pyrazine-7-carboxamide] | 4.05 h
C=CC(=O)N1CCC(Nc2cnc3[nH]cc(C(=O)NC4CCCC4)c3n2)CC1 [Example 283, 2-[(1-acryloylpiperidin-4-yl)amino]-N-cyclopentyl-5H-pyrrolo[2,3-b]pyrazine-7-carboxamide] | > 6 h
C=CC(=O)N1CCC(Nc2cnc3[nH]cc(C(=O)N[C@@H](C)CC)c3n2)CC1 [Example 285, 2-[(1-acryloylpiperidin-4-yl)amino]-N-[(2S)-butan-2-yl]-5H-pyrrolo[2,3-b]pyrazine-7-carboxamide] | 5.75 h
C=CC(=O)N1CCC(Nc2cnc3[nH]cc(C(=O)NC(C)C4CC4)c3n2)CC1 (stereo not drawn) [Example 288, 2-[(1-acryloylpiperidin-4-yl)amino]-N-(1-cyclopropylethyl)-5H-pyrrolo[2,3-b]pyrazine-7-carboxamide] | 3.67 h
C=CC(=O)N1CCC(Nc2cnc3[nH]cc(C(=O)N[C@H](C)CC)c3n2)CC1 [Example 289, 2-[(1-acryloylpiperidin-4-yl)amino]-N-[(2R)-butan-2-yl]-5H-pyrrolo[2,3-b]pyrazine-7-carboxamide] | > 6 h
C=CC(=O)N1CC[C@@H](Nc2cnc3[nH]cc(C(=O)NC(C)C)c3n2)[C@H](F)C1 [Example 291, 2-{[(3R,4R)-1-acryloyl-3-fluoropiperidin-4-yl]amino}-N-(propan-2-yl)-5H-pyrrolo[2,3-b]pyrazine-7-carboxamide] | 3.27 h
C=CC(=O)N1CCN(c2cnc3[nH]cc(C(=O)NC(C)C)c3n2)CC1(C)C [Example 293, 2-(4-acryloyl-3,3-dimethylpiperazin-1-yl)-N-(propan-2-yl)-5H-pyrrolo[2,3-b]pyrazine-7-carboxamide] | > 6 h
C=CC(=O)N1CCN(c2cnc3[nH]cc(C(=O)NC(C)C)c3n2)C[C@@H]1C [Example 295, 2-[(3S)-4-acryloyl-3-methylpiperazin-1-yl]-N-(propan-2-yl)-5H-pyrrolo[2,3-b]pyrazine-7-carboxamide] | 3.15 h
C=CC(=O)N1CCN(c2cnc3[nH]cc(C(=O)NC(C)C)c3n2)C[C@@H]1CC [Example 299, 2-[(3S)-4-acryloyl-3-ethylpiperazin-1-yl]-N-(propan-2-yl)-5H-pyrrolo[2,3-b]pyrazine-7-carboxamide] | 3.32 h
C=CC(=O)N1[C@@H]2CC[C@H]1CN(c1cnc3[nH]cc(C(=O)NC(C)C)c3n1)C2 [Example 301, 2-[(1R,5S)-8-acryloyl-3,8-diazabicyclo[3.2.1]oct-3-yl]-N-(propan-2-yl)-5H-pyrrolo[2,3-b]pyrazine-7-carboxamide] | 1.4 h
C=CC(=O)N1CC[C@@H](Nc2cnc3[nH]cc(C(=O)NC(C)C)c3n2)[C@@H](OC)C1 [Example 302, 2-{[(3S,4R)-1-acryloyl-3-methoxypiperidin-4-yl]amino}-N-(propan-2-yl)-5H-pyrrolo[2,3-b]pyrazine-7-carboxamide] | > 6 h

Second part, the compound after the results:

half-life at 1 μM | Compound
5.68 h | C=CC(=O)N1CCN(c2cnc3[nH]cc(C(=O)NC(C)C)c3n2)C[C@@H]1CC(C)C [Example 303, 2-[(3S)-4-acryloyl-3-(2-methylpropyl)piperazin-1-yl]-N-(propan-2-yl)-5H -pyrrolo[2,3-b]pyrazine-7-carboxamide]
5.95 h | C=CC(=O)N1CC[C@@H](Nc2cnc3[nH]cc(C(=O)NC(C)C)c3n2)[C@H](OC)C1 [Example 305, 2-{[(3R,4R)-1-acryloyl-3-methoxypiperidin-4-yl]amino}-N-(propan-2-yl)-5H-pyrrolo[2,3-b]pyrazine-7-carboxamide]
2.03 h | C=CC(=O)N1CCN(c2cnc3[nH]cc(C(=O)NC(C)C)c3n2)[C@H](C)C1 [Example 307, 2-[(2R)-4-acryloyl-2-methylpiperazin-1-yl]-N-(propan-2-yl)-5H-pyrrolo[2,3-b]pyrazine-7-carboxamide]
> 6 h | C=CC(=O)N1CC[C@H](Nc2cnc3[nH]cc(C(=O)NC(C)C)c3n2)[C@H](OC)C1 [Example 317, 2-{[(3R,4S)-1-acryloyl-3-methoxypiperidin-4-yl]amino}-N-(propan-2-yl)-5H-pyrrolo[2,3-b]pyrazine-7-carboxamide]
5.87 h | C=CC(=O)N1CCC(C)(Nc2cnc3[nH]cc(C(=O)NC(C)C)c3n2)CC1 [Example 318, 2-[(1-acryloyl-4-methylpiperidin-4-yl)amino]-N-(propan-2-yl)-5H-pyrrolo[2,3-b]pyrazine-7-carboxamide]
3.17 h | C=CC(=O)N1CC[C@@H](Nc2cnc3[nH]cc(C(=O)NC(C)C)c3n2)[C@@H](F)C1 [Example 320, 2-{[(3S,4R)-1-acryloyl-3-fluoropiperidin-4-yl]amino}-N-(propan-2-yl)-5H-pyrrolo[2,3-b]pyrazine-7-carboxamide]
1.35 h | C=CC(=O)N1CC(Nc2cnc3[nH]ccc3n2)C1 [Example 337, 1-(3-((5H-Pyrrolo[2,3-b]pyrazin-2-yl)amino)azetidin-1-yl)prop-2-en-1-one]
5.47 h | C=CC(=O)N1CCC(Oc2cnc3[nH]cc(C(=O)NC(C)(C)C)c3n2)CC1 [Example 338, 2-((1-Acryloylpiperidin-4-yl)oxy)-N-(tert-butyl)-5H-pyrrolo[2,3-b]pyrazine-7-carboxamide]
3.78 h | C=CC(=O)N1CCC(Oc2cnc3[nH]cc(C(=O)NC(C)C)c3n2)CC1 [Example 339, 2-((1-Acryloylpiperidin-4-yl)oxy)-N-isopropyl-5H-pyrrolo[2,3-b]pyrazine-7-carboxamide]
> 6 h | C=CC(=O)N1CC[C@@H](Nc2cnc3[nH]cc(C(=O)NC(C)(C)C)c3n2)C[C@H]1C [Example 342, 2-(((2R,4R)-1-Acryloyl-2-methylpiperidin-4-yl)amino)-N-(tert-butyl)-5H-pyrrolo[2,3-b]pyrazine-7-carboxamide]
> 5.85 h | C#CCNC(=O)c1c[nH]c2ncc(NC3CCN(C(=O)C=C)CC3)nc12 [Example 343, 2-((1-Acryloylpiperidin-4-yl)amino)-N-(prop-2-yn-1-yl)-5H-pyrrolo[2,3-b]pyrazine-7-carboxamide]
